# Measurements: patent US8318762B2, “Pyrazolospiroketone acetyl-CoA carboxylase inhibitors” (Pfizer Inc., priority 2008, dated 2012)
# Read-outs that look alike come from different tables or passages of the source.
# Biological target: T1, recombinant human ACC2 (Homo sapiens, UniProt O00763)
# T1 construct: a full length Cytomax clone of ACC2 was purchased from Cambridge Bioscience Limited; made in house; host or cells: CHO cells (tetracycline induction, pcDNA5 FRT TO-TOPO); purified on a Softlink Soft Release Avidin column
# Test: Measurement of human ACC2 inhibition (recombinant hACC2 Transcreener ADP detection FP assay)
# Type: biochemical
# Procedure: [3] Measurement of human ACC2 inhibition. Human ACC2 inhibition was measured using purified recombinant human ACC2 (hrACC2). […] The ACC2 was expressed in CHO cells by tetracycline induction and harvested in 5 liters of DMEM/F12 with glutamine, biotin, hygromycin and blasticidin with 1 μg/mL tetracycline (Invitrogen, Carlsbad, Calif.). The conditioned medium containing ACC2 was then applied to a Softlink Soft Release Avidin column (Promega, Madison, Wis.) and eluted with 5 mM biotin. […] The purified ACC2 was dialyzed in 50 mM Tris, 200 mM NaCl, 4 mM DTT, 2 mM EDTA, and 5% glycerol. […] The final conditions for the assay were 50 mM HEPES, pH7.5, 5 mM MgCl2, 5 mM tripotassium citrate, 2 mM DTT, 0.5 mg/mL BSA, 30 μM acetyl-CoA, 50 μM ATP, and 8 mM KHCO3. Typically, a 10 μl reaction was run for 1 hour at room temperature, and 10 μl of Transcreener stop and detect buffer was added and incubated for an additional 1 hour.
# [1] = recombinant hACC2 transcreener assay, read-out: rhACC2 IC50
# T1 sequence (O00763 whole entry): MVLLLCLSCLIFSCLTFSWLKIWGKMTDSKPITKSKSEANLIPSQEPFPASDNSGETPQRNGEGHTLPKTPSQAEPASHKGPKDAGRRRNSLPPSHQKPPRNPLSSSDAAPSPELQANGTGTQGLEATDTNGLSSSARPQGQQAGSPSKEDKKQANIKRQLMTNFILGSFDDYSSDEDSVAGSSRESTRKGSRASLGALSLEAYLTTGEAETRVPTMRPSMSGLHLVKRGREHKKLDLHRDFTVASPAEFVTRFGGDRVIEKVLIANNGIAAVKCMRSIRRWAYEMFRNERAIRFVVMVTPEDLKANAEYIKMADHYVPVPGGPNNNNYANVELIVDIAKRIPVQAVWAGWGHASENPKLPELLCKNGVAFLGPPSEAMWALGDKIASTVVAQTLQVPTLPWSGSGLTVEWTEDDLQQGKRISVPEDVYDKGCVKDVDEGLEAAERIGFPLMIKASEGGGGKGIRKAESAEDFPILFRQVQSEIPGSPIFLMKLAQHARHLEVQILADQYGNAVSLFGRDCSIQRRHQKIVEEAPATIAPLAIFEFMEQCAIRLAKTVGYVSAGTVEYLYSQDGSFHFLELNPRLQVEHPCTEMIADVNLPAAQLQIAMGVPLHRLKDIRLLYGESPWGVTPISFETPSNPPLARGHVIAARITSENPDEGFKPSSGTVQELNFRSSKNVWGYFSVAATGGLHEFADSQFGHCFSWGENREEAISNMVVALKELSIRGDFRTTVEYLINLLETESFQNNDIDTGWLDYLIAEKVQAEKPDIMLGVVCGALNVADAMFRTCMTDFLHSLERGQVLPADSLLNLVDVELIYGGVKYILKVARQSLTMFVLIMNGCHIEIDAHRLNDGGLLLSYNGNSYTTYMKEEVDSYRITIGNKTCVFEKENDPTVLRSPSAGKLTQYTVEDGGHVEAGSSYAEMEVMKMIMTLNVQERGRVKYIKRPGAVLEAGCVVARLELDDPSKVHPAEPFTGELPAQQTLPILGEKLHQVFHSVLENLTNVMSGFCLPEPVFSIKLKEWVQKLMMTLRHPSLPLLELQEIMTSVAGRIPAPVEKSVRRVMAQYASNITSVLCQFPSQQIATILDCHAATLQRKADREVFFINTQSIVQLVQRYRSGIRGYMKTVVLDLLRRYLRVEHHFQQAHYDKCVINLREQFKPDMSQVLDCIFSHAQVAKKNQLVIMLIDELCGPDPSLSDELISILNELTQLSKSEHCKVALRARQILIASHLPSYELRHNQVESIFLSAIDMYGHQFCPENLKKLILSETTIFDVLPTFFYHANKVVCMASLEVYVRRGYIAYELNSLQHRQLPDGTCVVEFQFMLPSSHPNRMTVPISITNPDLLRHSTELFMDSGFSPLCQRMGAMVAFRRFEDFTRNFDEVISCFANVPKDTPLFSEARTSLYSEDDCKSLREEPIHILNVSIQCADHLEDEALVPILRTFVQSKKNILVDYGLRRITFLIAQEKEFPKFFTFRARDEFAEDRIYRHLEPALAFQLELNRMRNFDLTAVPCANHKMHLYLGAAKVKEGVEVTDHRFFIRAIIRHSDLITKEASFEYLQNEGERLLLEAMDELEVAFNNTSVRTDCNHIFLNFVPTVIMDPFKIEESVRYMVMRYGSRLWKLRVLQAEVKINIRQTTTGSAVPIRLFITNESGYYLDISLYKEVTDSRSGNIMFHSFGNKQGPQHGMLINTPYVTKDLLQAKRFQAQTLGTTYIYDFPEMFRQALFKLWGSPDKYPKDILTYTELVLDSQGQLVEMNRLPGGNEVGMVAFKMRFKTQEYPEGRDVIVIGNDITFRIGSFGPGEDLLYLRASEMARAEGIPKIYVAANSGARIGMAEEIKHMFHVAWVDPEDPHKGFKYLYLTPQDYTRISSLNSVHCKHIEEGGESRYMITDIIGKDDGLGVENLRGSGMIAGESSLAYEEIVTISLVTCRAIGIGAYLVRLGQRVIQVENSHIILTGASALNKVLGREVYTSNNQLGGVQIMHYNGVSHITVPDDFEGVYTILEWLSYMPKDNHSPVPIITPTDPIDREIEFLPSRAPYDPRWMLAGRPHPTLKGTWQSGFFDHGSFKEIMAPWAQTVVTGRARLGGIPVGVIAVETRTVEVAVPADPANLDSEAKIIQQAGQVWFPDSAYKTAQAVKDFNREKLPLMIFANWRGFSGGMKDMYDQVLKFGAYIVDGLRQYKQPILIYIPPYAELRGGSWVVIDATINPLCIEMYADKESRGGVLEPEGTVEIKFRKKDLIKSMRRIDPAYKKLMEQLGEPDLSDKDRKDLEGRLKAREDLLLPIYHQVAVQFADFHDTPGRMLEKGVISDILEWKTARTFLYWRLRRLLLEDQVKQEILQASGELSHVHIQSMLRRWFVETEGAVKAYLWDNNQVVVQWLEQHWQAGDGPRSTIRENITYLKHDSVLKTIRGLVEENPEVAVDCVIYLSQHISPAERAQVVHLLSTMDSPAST
structure (smiles),measurement,setting,value
Cc1nc2c(F)cc(C(=O)N3CCC4(CC3)CC(=O)c3nn(C(C)C)cc3O4)cc2[nH]1 [3.024],IC50,[1],70 nM
CC(C)n1cc2c(n1)C(=O)CC1(CCN(C(=O)c3ccc4snc(N)c4c3)CC1)O2 [7.001],IC50,[1],16 nM
CCc1n[nH]c2c(C)cc(C(=O)N3CCC4(CC3)CC(=O)c3nn(CC)c(C)c3O4)cc12 [1.125],IC50,[1],7 nM
CCn1nc2c(c1C)OC1(CCN(C(=O)c3ccc4ncsc4c3)CC1)CC2=O [10.001],IC50,[1],285 nM
Cn1cnc2ccc(C(=O)N3CCC4(CC3)CC(=O)c3nn(C(C)(C)C)cc3O4)cc21 [3.014],IC50,[1],21 nM
CCc1n[nH]c2c(C)cc(C(=O)N3CCC4(CC3)CC(=O)c3nn(CC)cc3O4)cc12 [1.019],IC50,[1],18 nM
CC(C)n1cc2c(n1)C(=O)CC1(CCN(C(=O)c3ccc4cn(C)nc4c3)CC1)O2 [5.001],IC50,[1],675 nM
CC(C)(C)n1cc2c(n1)C(=O)CC1(CCN(C(=O)c3ccc4c(=O)[nH]ccc4c3)CC1)O2 [19.001],IC50,[1],9 nM
CC(C)n1cc2c(n1)C(=O)CC1(CCN(C(=O)c3ccc4oncc4c3)CC1)O2 [22.001],IC50,[1],> 1000 nM
CC(C)(C)n1cc2c(n1)C(=O)CC1(CCN(C(=O)c3ccc4[nH]c(=O)oc4c3)CC1)O2 [20.001],IC50,[1],28 nM
Cc1nc2cc(C(=O)N3CCC4(CC3)CC(=O)c3nn(C(C)(C)C)cc3O4)ccc2n1C [8.009],IC50,[1],47 nM
Cc1n[nH]c2c(C)cc(C(=O)N3CCC4(CC3)CC(=O)c3nn(CC(C)C)c(C)c3O4)cc12 [1.129],IC50,[1],5 nM
CCCn1cc2c(n1)C(=O)CC1(CCN(C(=O)c3cc(C)c4[nH]nc(C)c4c3)CC1)O2 [1.004],IC50,[1],20 nM
Cc1n[nH]c2ccc(C(=O)N3CCC4(CC3)CC(=O)c3nn(C(C)(C)C)c(C)c3O4)cc12 [1.090],IC50,[1],23 nM
CCOc1cc(C(=O)N2CCC3(CC2)CC(=O)c2nn(CC)cc2O3)cc2c(C)n[nH]c12 [1.115],IC50,[1],12 nM
CCc1n[nH]c2c(OC)cc(C(=O)N3CCC4(CC3)CC(=O)c3nn(C5CCCC5)cc3O4)cc12 [1.049],IC50,[1],7 nM
CCn1nc2c(c1C)OC1(CCN(C(=O)c3ccc4c(c3)nc(C)n4C)CC1)CC2=O [8.006],IC50,[1],266 nM
CC(C)(C)n1cc2c(n1)C(=O)CC1(CCN(C(=O)c3ccc4ncccc4c3)CC1)O2 [15.002],IC50,[1],11 nM
CCn1nc2c(c1C)OC1(CCN(C(=O)c3ccc4sncc4c3)CC1)CC2=O [7.005],IC50,[1],36 nM
CCc1n[nH]c2ccc(C(=O)N3CCC4(CC3)CC(=O)c3nn(C)cc3O4)cc12 [1.095],IC50,[1],397 nM
CN1C(=O)CCc2ccc(C(=O)N3CCC4(CC3)CC(=O)c3nn(C(C)(C)C)cc3O4)cc21 [12.003],IC50,[1],52 nM
Cc1nc2c(C)cc(C(=O)N3CCC4(CC3)CC(=O)c3nn(C(C)C)cc3O4)cc2[nH]1 [3.001],IC50,[1],28 nM
CC(C)(C)n1cc2c(n1)C(=O)CC1(CCN(C(=O)c3ccc4c(c3)CCC(=O)N4)CC1)O2 [13.004],IC50,[1],33 nM
CC(C)(C)n1cc2c(n1)C(=O)CC1(CCN(C(=O)c3cc(F)c4nc[nH]c4c3)CC1)O2 [3.022],IC50,[1],14 nM
CCc1cc(C(=O)N2CCC3(CC2)CC(=O)c2nn(CC)cc2O3)cc2cn[nH]c12 [1.057],IC50,[1],40 nM
Cn1ncc2cc(C(=O)N3CCC4(CC3)CC(=O)c3nn(C(C)(C)C)cc3O4)ccc21 [1.145],IC50,[1],26 nM
Cc1n[nH]c2ccc(C(=O)N3CCC4(CC3)CC(=O)c3nn(C5CCC5)cc3O4)cc12 [1.089],IC50,[1],22 nM
Cc1c2c(nn1C)C(=O)CC1(CCN(C(=O)c3ccc4c(cnn4C)c3)CC1)O2 [1.124],IC50,[1],> 3000 nM
COc1cc(C(=O)N2CCC3(CC2)CC(=O)c2nn(C(C)(C)C)cc2O3)cc2[nH]ncc12 [2.023],IC50,[1],3 nM
CCc1nn(C)c2cc(C(=O)N3CCC4(CC3)CC(=O)c3nn(C(C)C)cc3O4)ccc12 [2.007],IC50,[1],14 nM
CCn1nc2c(c1C)OC1(CCN(C(=O)c3cc(F)c4nc[nH]c4c3)CC1)CC2=O [3.020],IC50,[1],139 nM
Cc1n[nH]c2c(C)cc(C(=O)N3CCC4(CC3)CC(=O)c3nn(C5CCCC5)cc3O4)cc12 [1.009],IC50,[1],4 nM
Cc1n[nH]c2ccc(C(=O)N3CCC4(CC3)CC(=O)c3nn(C(C)C)cc3O4)cc12 [1.081],IC50,[1],10 nM
CC(C)(C)n1cc2c(n1)C(=O)CC1(CCN(C(=O)c3ccc4nc[nH]c4c3)CC1)O2 [3.010],IC50,[1],12 nM
Cc1cc(C(=O)N2CCC3(CC2)CC(=O)c2nn(C)cc2O3)cc2cn[nH]c12 [1.029],IC50,,629 nM
CC(C)(C)n1cc2c(n1)C(=O)CC1(CCN(C(=O)c3ccc4ocnc4c3)CC1)O2 [9.002],IC50,[1],291 nM
CC(C)(C)n1cc2c(n1)C(=O)CC1(CCN(C(=O)c3ccc4sncc4c3)CC1)O2 [7.004],IC50,[1],23 nM
CC(C)n1cc2c(n1)C(=O)CC1(CCN(C(=O)c3ccc4ncn(C)c4c3)CC1)O2 [3.015],IC50,[1],153 nM
